Assay results taken from PubChem BioAssay (NCI).
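1) Cells in 96-well plates. 2) Compound, 48 h, 5 concentrations. 3) Linear interpolation between surrounding doses. 4) Unreached endpoint = highest concentration. At the GI50, growth is halved. TGI is the concentration that stops growth completely.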

Key:
Test in all cases: NCI tumour cell line growth inhibition, 48 h
[1] = test system: UACC-62 melanoma
[2] = test system: U251 CNS
[3] = test system: K-562 leukemia
[4] = test system: BT-549 breast
[5] = test system: SF-295 CNS
[6] = test system: OVCAR-5 ovarian
[7] = test system: T-47D breast
[8] = test system: UO-31 renal
[9] = test system: OVCAR-3 ovarian
[10] = test system: SK-MEL-2 melanoma
[11] = test system: EKVX NSCLC
[12] = test system: HS 578T breast
[13] = test system: A549 NSCLC
[14] = test system: RPMI-8226 leukemia
[15] = test system: OVCAR-8 ovarian
[16] = test system: IGROV1 ovarian
[17] = test system: SK-MEL-28 melanoma
[18] = test system: KM12 colon
[19] = test system: NCI/ADR-RES ovarian
[20] = test system: SK-OV-3 ovarian
[21] = test system: SW-620 colon
[22] = test system: SNB-75 CNS
[23] = test system: MDA-MB-435
[24] = test system: DU-145 prostate
[25] = test system: SN12C renal
[26] = test system: HOP-62 NSCLC
[27] = test system: SF-268 CNS
[28] = test system: MCF7 breast
[29] = test system: 786-0 renal
[30] = test system: MALME-3M melanoma
[31] = test system: NCI-H522 lung
[32] = test system: A498 renal
[33] = test system: MOLT-4 leukemia
[34] = test system: TK-10 renal
[35] = test system: SF-539 CNS
[36] = test system: LOX IMVI melanoma
[37] = test system: HOP-92 NSCLC
[38] = test system: CAKI-1 renal
[39] = test system: HCT-15 colon
[40] = test system: COLO 205 colon
[41] = test system: HL-60(TB) leukemia
[42] = test system: SR leukemia
[43] = test system: M14 melanoma
[44] = test system: SK-MEL-5 melanoma
[45] = test system: ACHN renal
[46] = test system: SNB-19 CNS
[47] = test system: NCI-H226 lung
[48] = test system: HCC-2998 colon
[49] = test system: HT29 colon
[50] = test system: MDA-MB-231 breast
[51] = test system: RXF 393 renal
[52] = test system: NCI-H460 lung
[53] = test system: OVCAR-4 ovarian
[54] = test system: PC-3 prostate
[55] = test system: UACC-257 melanoma

Cc1ncn(-c2ccc(/C=N/Nc3ccnc4cc(Cl)ccc34)cc2)c1C
GI50 [1]: 1740 nM
TGI [1]: 3240 nM
GI50 [2]: 1590 nM
TGI [2]: 2990 nM
GI50 [3]: 2070 nM
TGI [3]: 8070 nM
GI50 [4]: 1830 nM
TGI [4]: 3440 nM
GI50 [5]: 1880 nM
TGI [5]: 3520 nM
GI50 [6]: 3030 nM
TGI [6]: 10000 nM
GI50 [7]: 1830 nM
TGI [7]: 3830 nM
GI50 [8]: 1640 nM
TGI [8]: 3030 nM
GI50 [9]: 1830 nM
TGI [9]: 3750 nM
GI50 [10]: 1730 nM
TGI [10]: 3220 nM
GI50 [11]: 3450 nM
TGI [11]: 18000 nM
GI50 [12]: 2010 nM
TGI [12]: 4480 nM
GI50 [13]: 1700 nM
TGI [13]: 3160 nM
GI50 [14]: 1990 nM
TGI [14]: 4520 nM
GI50 [15]: 1870 nM
TGI [15]: 3670 nM
GI50 [16]: 1970 nM
TGI [16]: 3820 nM
GI50 [17]: 1650 nM
TGI [17]: 3090 nM
GI50 [18]: 2380 nM
TGI [18]: 5790 nM
GI50 [19]: 2070 nM
TGI [19]: 5040 nM
GI50 [20]: 1800 nM
TGI [20]: 3360 nM
GI50 [21]: 1630 nM
TGI [21]: 3540 nM
GI50 [22]: 1510 nM
TGI [22]: 2890 nM
GI50 [23]: 1650 nM
TGI [23]: 3050 nM
GI50 [24]: 1880 nM
TGI [24]: 3700 nM
GI50 [25]: 1750 nM
TGI [25]: 3470 nM
GI50 [26]: 1740 nM
TGI [26]: 3200 nM
GI50 [27]: 1860 nM
TGI [27]: 3960 nM
GI50 [28]: 1540 nM
TGI [28]: 3410 nM
GI50 [29]: 1610 nM
TGI [29]: 3250 nM
GI50 [30]: 1930 nM
TGI [30]: 3610 nM
GI50 [31]: 1800 nM
TGI [31]: 3390 nM
GI50 [32]: 6490 nM
TGI [32]: 20200 nM
GI50 [33]: 1940 nM
TGI [33]: 5120 nM
GI50 [34]: 1850 nM
TGI [34]: 3360 nM
GI50 [35]: 1820 nM
TGI [35]: 3240 nM
GI50 [36]: 2190 nM
TGI [36]: 3980 nM
GI50 [37]: 1590 nM
TGI [37]: 3210 nM
GI50 [38]: 1630 nM
TGI [38]: 2990 nM
GI50 [39]: 1800 nM
TGI [39]: 3730 nM
GI50 [40]: 1740 nM
TGI [40]: 3280 nM
GI50 [41]: 1560 nM
TGI [41]: 3770 nM
GI50 [42]: 1240 nM
TGI [42]: 4570 nM
GI50 [43]: 1810 nM
TGI [43]: 3480 nM
GI50 [44]: 2070 nM
TGI [44]: 4380 nM
GI50 [45]: 1790 nM
TGI [45]: 3180 nM
GI50 [46]: 1880 nM
TGI [46]: 3880 nM
GI50 [47]: 2420 nM
TGI [47]: 6870 nM
GI50 [48]: 1920 nM
TGI [48]: 3520 nM
GI50 [49]: 1690 nM
TGI [49]: 3330 nM
GI50 [50]: 2080 nM
TGI [50]: 3840 nM
GI50 [51]: 1460 nM
TGI [51]: 2870 nM
GI50 [52]: 1780 nM
TGI [52]: 3570 nM
GI50 [53]: 1670 nM
TGI [53]: 3190 nM
GI50 [54]: 1720 nM
TGI [54]: 3370 nM
GI50 [55]: 1700 nM
TGI [55]: 3110 nM
